Experimental data published in ChEMBL document CHEMBL5260835, “Therapeutic potential of quercetin as a cardiovascular agent” (2018).

Tests used:
Rattus norvegicus [1] = experiment: Hypotensive effect in rat at 100 nmol/kg,po; format: functional
Oryctolagus cuniculus [2] = species: Oryctolagus cuniculus; experiment: Cardioprotective activity in rabbit model assessed as resistance relaxation at 5.6 uM; format: functional; parameters: scale not given: the % may be the effect or the level left
Oryctolagus cuniculus [3] = species: Oryctolagus cuniculus; experiment: Cardioprotective activity in rabbit model assessed as resistance relaxation at 8 uM; format: functional; parameters: scale not given: the % may be the effect or the level left
Oryctolagus cuniculus [4] = species: Oryctolagus cuniculus; experiment: Cardioprotective activity in rabbit model assessed as resistance relaxation at 30 uM; format: functional; parameters: scale not given: the % may be the effect or the level left
Oryctolagus cuniculus [5] = species: Oryctolagus cuniculus; experiment: Cardioprotective activity in rabbit model assessed as conductivity relaxation at 5.6 uM; format: functional; parameters: scale not given: the % may be the effect or the level left
Oryctolagus cuniculus [6] = species: Oryctolagus cuniculus; experiment: Cardioprotective activity in rabbit model assessed as conductivity relaxation at 8 uM; format: functional; parameters: scale not given: the % may be the effect or the level left
Oryctolagus cuniculus [7] = species: Oryctolagus cuniculus; experiment: Cardioprotective activity in rabbit model assessed as conductivity relaxation at 30 uM; format: functional; parameters: scale not given: the % may be the effect or the level left
Mus musculus [8] = experiment: Cardioprotection in […] assessed as decrease in mean arterial pressure at 5 to 10 mg/kg, po measured after 13 weeks relative control; format: functional; parameters: scale not given: the % may be the effect or the level left; settings: dose 5-10 mg/kg
Rattus norvegicus [9] = species: Rattus norvegicus; experiment: Activation of rat Na(+)/K(+) ATPase assessed as increase in maximum velocity relative to control
Mus musculus [10] = species: Mus musculus; experiment: Antiatherosclerotic activity in Apoe-/- mouse assessed as attenuation of coronary artery illness relative to control; format: functional
Mus musculus [11] = species: Mus musculus; experiment: Effect on triglyceride level in serum of high fat diet induced mouse model assessed as reduction in triglycerides level relative to control; format: functional; parameters: scale not given: the % may be the effect or the level left
Mus musculus [12] = species: Mus musculus; experiment: Effect on oleic level in serum of high fat diet induced mouse model assessed as reduction in oleic level relative to control; format: functional; parameters: scale not given: the % may be the effect or the level left
Mus musculus [13] = species: Mus musculus; experiment: Effect on palmitic level in serum of high fat diet induced mouse model assessed as reduction in palmitic level relative to control; format: functional; parameters: scale not given: the % may be the effect or the level left
Mus musculus [14] = species: Mus musculus; experiment: Effect on linoleic level in serum of high fat diet induced mouse model assessed as reduction in linoleic level relative to control; format: functional; parameters: scale not given: the % may be the effect or the level left

| Structure (SMILES) | Activity (Rattus norvegicus [1]) | Activity (Oryctolagus cuniculus [2]) | Activity (Oryctolagus cuniculus [3]) | Activity (Oryctolagus cuniculus [4]) | Activity (Oryctolagus cuniculus [5]) | Activity (Oryctolagus cuniculus [6]) | Activity (Oryctolagus cuniculus [7]) | Activity (Mus musculus [8]) | Activity (Rattus norvegicus [9]) | Activity (Mus musculus [10]) | Activity (Mus musculus [11]) | Activity (Mus musculus [12]) | Activity (Mus musculus [13]) | Activity (Mus musculus [14]) |
| --- | --- | --- | --- | --- | --- | --- | --- | --- | --- | --- | --- | --- | --- | --- |
| C[C@H](CS)C(=O)N1CCC[C@H]1C(=O)O [CAPTOPRIL] | 29.7 mmHg | – | – | – | – | – | – | – | – | – | – | – | – | – |
| O=c1c(O)c(-c2ccc(O)c(O)c2)oc2cc(O)cc(O)c12 [QUERCETIN] | – | -3.2% | -47% | -82% | -20% | -3.2% | -72% | -12% | 15% | 86% | 14% | 9% | 9% | 9% |
